Data as given in article PMC8330735 (Journal of Enzyme Inhibition and Medicinal Chemistry, 2021).

Experiments:
[1] = target: T1, ovine COX-1 (Ovis aries, UniProt P05979); assay: In vitro COX-1 inhibitory assay (colorimetric Cayman kit)
T1 sequence (P05979 25-600): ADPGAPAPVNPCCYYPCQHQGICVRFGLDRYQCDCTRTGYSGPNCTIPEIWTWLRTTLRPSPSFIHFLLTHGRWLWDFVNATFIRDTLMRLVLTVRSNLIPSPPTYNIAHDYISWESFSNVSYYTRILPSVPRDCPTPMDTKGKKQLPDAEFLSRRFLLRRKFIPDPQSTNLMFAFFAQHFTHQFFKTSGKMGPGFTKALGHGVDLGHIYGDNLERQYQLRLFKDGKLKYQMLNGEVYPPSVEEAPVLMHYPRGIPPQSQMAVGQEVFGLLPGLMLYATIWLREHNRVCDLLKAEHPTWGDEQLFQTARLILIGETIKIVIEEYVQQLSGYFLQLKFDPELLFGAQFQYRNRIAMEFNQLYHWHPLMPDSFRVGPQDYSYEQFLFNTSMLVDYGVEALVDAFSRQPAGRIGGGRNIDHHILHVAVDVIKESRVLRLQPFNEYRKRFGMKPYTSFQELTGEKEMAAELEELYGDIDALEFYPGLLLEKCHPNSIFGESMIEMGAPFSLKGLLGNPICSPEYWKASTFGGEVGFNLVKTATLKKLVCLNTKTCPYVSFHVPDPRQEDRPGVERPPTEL
Experimental: (§1) All the newly synthesised compounds were tested for their ability to inhibit COX-1 and COX-2 enzymes using a screening assay method.

[2] = target: T2, human recombinant COX-2 (Homo sapiens, UniProt P35354); assay: In vitro COX-2 inhibitory assay (colorimetric Cayman kit); details: for Selectivity Index (SI): COX-1 IC50/COX-2 IC50
T2 sequence (P35354 18-604): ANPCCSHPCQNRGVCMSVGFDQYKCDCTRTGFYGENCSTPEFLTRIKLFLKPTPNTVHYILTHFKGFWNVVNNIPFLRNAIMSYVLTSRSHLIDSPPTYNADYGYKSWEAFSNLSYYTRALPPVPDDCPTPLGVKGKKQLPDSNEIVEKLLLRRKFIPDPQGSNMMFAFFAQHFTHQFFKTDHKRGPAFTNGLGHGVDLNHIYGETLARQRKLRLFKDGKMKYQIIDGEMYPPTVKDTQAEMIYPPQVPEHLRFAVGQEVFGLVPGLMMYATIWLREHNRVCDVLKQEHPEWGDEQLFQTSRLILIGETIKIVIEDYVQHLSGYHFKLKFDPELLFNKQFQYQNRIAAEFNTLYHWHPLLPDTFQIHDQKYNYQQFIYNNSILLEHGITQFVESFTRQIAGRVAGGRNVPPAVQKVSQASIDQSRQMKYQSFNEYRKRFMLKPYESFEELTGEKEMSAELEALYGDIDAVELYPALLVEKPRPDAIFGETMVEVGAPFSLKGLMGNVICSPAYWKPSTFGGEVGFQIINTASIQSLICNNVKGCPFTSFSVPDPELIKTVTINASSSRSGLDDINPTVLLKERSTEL
Experimental: as §1

[3] = test system: carrageenan-induced rat paw oedema; assay: Carrageenan-induced rat paw oedema test; type: in vivo; details: compounds and celecoxib 50 mg/kg, ibuprofen and indomethacin 20 mg/kg; for Mean oedema thickness 1h: 1 h after carrageenan; for Mean oedema thickness 1h / Mean oedema thickness 2h / Mean oedema thickness 3h / Mean oedema thickness 4h / Mean oedema thickness 5h / Mean oedema thickness 24h / Mean oedema thickness 0h: mean ± SEM, n = 5; for Mean oedema thickness 2h: 2 h after carrageenan; for Mean oedema thickness 3h: 3 h after carrageenan; for Mean oedema thickness 4h: 4 h after carrageenan; for Mean oedema thickness 5h: 5 h after carrageenan; for Mean oedema thickness 24h: 24 h after carrageenan; for Mean oedema thickness 0h: before carrageenan (0 h); for Average oedema inhibition%: from area under the curve of all time points
Experimental: The rats were divided into nine groups (n = 5/group). All tested compounds were suspended in 1% Tween-80. Group 1, controls, were given the vehicle (1% Tween80, 10 ml/kg). […] The rats were given the drugs 1 h before the injection of carrageenan solution (1% in 0.9% NaCl, 0.1 ml) (Sigma Aldrich, USA) in the sub-planter tissue of the right hind paw. The paw thickness (mm) was measured using a calliper before (0 h) and after carrageenan injection at 1, 2, 3, 4, 5 and 24 h. The inhibition of oedema thickness was calculated using the following formula (control– drug/control) × 100.

[4] = test system: stomach ulceration in rats; details: rat, in vivo, 2 days
Experimental: The rats from the previous experiment were fasted for 12 h., followed by the administration of additional doses of the selected compounds or the two references for two consecutive days. Six hrs after the last treatment, the animals were sacrificed, and their stomachs were removed, washed with saline solution (0.9%) and examined for ulceration using a magnifying lens. The ulcer scores were estimated according to the method prescribed by Kulkarni and as detailed in our previous studies[36–38]. The following scores were individually assigned to each lesion: normal coloured stomach, 0; red colouration, 0.5; spot ulcers, 1; haemorrhagic streaks, 1.5; ulcer >3 but <5 mm, 2; and ulcers >5 mm, 3.

[5] = test system: ROS production in LPS-activated RAW 264.7 macrophages; assay: ROS production in LPS-activated RAW 264.7 macrophages (DCFH-DA); type: cell-based; details: Mus musculus, RAW264.7; LPS 1 µg/mL activated RAW 264.7
Experimental: HCA7 colorectal cancer cell line was obtained from Sigma. […] Louis, MO) containing 10% heat-inactivated foetal bovine serum (HI-FBS) (Gibco, USA), 100 μg/mL streptomycin (Invitrogen, USA), and […] penicillin (Invitrogen, USA)[40]. HCA7 and RAW 264.7 cells were cultured in Dulbecco's minimal essential media (DMEM, Invitrogen) containing 10% HI-FBS, sodium pyruvate (1 mM), penicillin ([…]), and streptomycin (100 mg/m)[41]^,[42]. […] The cells were cultured, incubated with the different test compounds, and activated with LPS (1 µg/mL) as detailed above. […] IC50 values were calculated from the dose–response curves.

[6] = test system: NO production in LPS-activated RAW 264.7 macrophages; assay: NO production in LPS-activated RAW 264.7 macrophages (DAF-FM); type: cell-based; details: Mus musculus, RAW264.7; LPS 1 µg/mL activated RAW 264.7
Experimental: HCA7 colorectal cancer cell line was obtained from Sigma. […] Louis, MO) containing 10% heat-inactivated foetal bovine serum (HI-FBS) (Gibco, USA), 100 μg/mL streptomycin (Invitrogen, USA), and […] penicillin (Invitrogen, USA)[40]. HCA7 and RAW 264.7 cells were cultured in Dulbecco's minimal essential media (DMEM, Invitrogen) containing 10% HI-FBS, sodium pyruvate (1 mM), penicillin ([…]), and streptomycin (100 mg/m)[41]^,[42]. […] Molecular Probes, USA). Briefly, RAW 264.7 cells were cultured in black 96-well plates (200,000 cells/mL, 100 µl/well) for 24 h. […] The fluorescence intensity, which is directly proportional to NO levels, was quantified, as detailed in our previous study. IC50 values were calculated from the dose–response curves.

IC50 [1]	melting point	IC50 [2]	Selectivity Index (SI) [2]	SMILES	other results
13.35 ± 0.1 µM	120 to 125 °C	0.04 µM	333.75	CC(C)Cc1ccc(C(C)C(=O)NN2C(=O)c3ccccc3N(C)C2c2ccc(Cl)cc2)cc1 (centres unmarked) [7b, N-(2-(4-chlorophenyl)-1-methyl-4-oxo-1,4-dihydroquinazolin-3(2H)-yl)-2–(4-isobutylphenyl) propenamide]	
14.4 ± 0.16 µM	92 to 95 °C	0.04 µM	359.25	COc1ccc(C2N(NC(=O)C(C)c3ccc(CC(C)C)cc3)C(=O)c3ccccc3N2C)cc1 (centres unmarked) [7d, 2-(4-Isobutylphenyl)-N-(2-(4-methoxyphenyl)-1-methyl-4-oxo-1,4-dihydroquinazolin-3(2H)-yl) propenamide]	
11.8 ± 0.15 µM	90 to 95 °C	0.04 µM	296.25	CC(C)Cc1ccc(C(C)C(=O)NN2C(=O)c3ccccc3N(C)C2c2ccc(F)cc2)cc1 (centres unmarked) [7e]	
12.76 ± 0.1 µM	85 to 89 °C	0.05 ± 0.13 µM	255.02	CC(C)Cc1ccc(C(C)C(=O)NN2C(=O)c3ccccc3N(C)C2c2ccccc2)cc1 (centres unmarked) [7a, 2-(4-Isobutylphenyl)-N-(1-methyl-4-oxo-2-phenyl-1,4-dihydroquinazolin-3(2H)-yl) propenamide]	

Second part, the molecule before the results:

SMILES	IC50 [1]	melting point	IC50 [2]	Selectivity Index (SI) [2]	other results
O=C(CSc1nc2ccccc2c(=O)n1NC(=O)Cc1ccccc1)NNC(=O)c1ccc(Cl)cc1 [14d, N-(2-((2-(2-(4-chlorobenzoyl)hydrazinyl)-2-oxoethyl)thio)-4-oxoquinazolin-3(4H)-yl)-2-phenylacetamide]	12.56 ± 0.11 µM	221 to 226 °C	0.04 µM	314.00	
COc1ccc(C2N(NC(=O)Cc3c[nH]c4ccccc34)C(=O)c3ccccc3N2C)cc1 (centres unmarked) [4c, 2-(1 h-indol-3-yl)-N-(2-(4-methoxyphenyl)-1-methyl-4-oxo-1,4-dihydroquinazolin-3(2H)-yl)acetamide]	11.2 ± 0.13 µM	83 to 85 °C	0.03 µM	373.67	
O=C(CSc1nc2ccccc2c(=O)n1NC(=O)c1ccccc1)NNC(=O)c1ccc(Cl)cc1 [14b, N-(2-((2-(2-(4-chlorobenzoyl)hydrazinyl)-2-oxoethyl)thio)-4 oxoquinazolin-3(4H)-yl)benzamide]	12.98 ± 0.12 µM	215 to 220 °C	0.04 µM	324.5	
NNC(=O)CSc1nc2ccccc2c(=O)n1NC(=O)c1ccccc1 [13a, N-(2-((2-hydrazinyl-2-oxoethyl)thio)-4-oxoquinazolin-3(4H)-yl)benzamide]	10.2 ± 0.14 µM	208 to 213 °C	0.04 µM	254.75	
O=C(CSc1nc2ccccc2c(=O)n1NC(=O)c1ccccc1)NNC(=O)c1ccccc1 [14a, N-(2-((2-(2-benzoylhydrazinyl)-2-oxoethyl)thio)-4-oxoquinazolin-3(4H)-yl)benzamide]	10.9 ± 0.2 µM	194 to 198 °C	0.03 µM	362.00	
COc1ccc2c(c1)c(CC(=O)O)c(C)n2C(=O)c1ccc(Cl)cc1 [Indomethacin, reference compound]					Mean oedema thickness 1h [3]: 2.00 ± 0.14 mm; Mean oedema thickness 2h [3]: 2.21 ± 0.12 mm; Mean oedema thickness 3h [3]: 1.82 ± 0.13 mm; Mean oedema thickness 4h [3]: 2.02 ± 0.16 mm; Mean oedema thickness 5h [3]: 1.87 ± 0.18 mm; Mean oedema thickness 24h [3]: 0.49 ± 0.10 mm; Mean oedema thickness 0h [3]: 0.00 ± 0.00 mm; Average oedema inhibition% [3]: 33.81%; Average Ulcer number [4]: 12.4; Lesion Incidence (%) [4]: 100%; Number of rats with ulcer [4]: 5; IC50 [5]: 68.9 ± 1.29 µM; IC50 [6]: 25.3 ± 1.01 µM
CC(C)Cc1ccc(C(C)C(=O)O)cc1 (centres unmarked) [Ibuprofen, reference compound]					Mean oedema thickness 1h [3]: 1.76 ± 0.07 mm; Mean oedema thickness 2h [3]: 2.00 ± 0.15 mm; Mean oedema thickness 3h [3]: 1.74 ± 0.08 mm; Mean oedema thickness 4h [3]: 1.23 ± 0.16 mm; Mean oedema thickness 5h [3]: 1.36 ± 0.18 mm; Mean oedema thickness 24h [3]: 0.48 ± 0.15 mm; Mean oedema thickness 0h [3]: 0.00 ± 0.00 mm; Average oedema inhibition% [3]: 47.18%; Average Ulcer number [4]: 3.8; Lesion Incidence (%) [4]: 100%; Number of rats with ulcer [4]: 5; IC50 [5]: 36.4 ± 1.45 µM; IC50 [6]: 18.8 ± 1.19 µM
